These results are taken from paper PMC6100259, “Insights into Structure-Activity Relationships of 3-Arylhydrazonoindolin-2-One Derivatives for Their Multitarget Activity on β-Amyloid Aggregation and Neurotoxicity” (Molecules : A Journal of Synthetic Chemistry and Natural …, 2018).

Where two headings read alike, the source gives them in different places.

One data set concerns the target T1, Aβ40 peptide (Homo sapiens, UniProt P05067).
T1 construct: we preferred using Aβ40 peptide
Description: Inhibition of Aβ40 aggregation, ThT fluorescence-based method. The class given is biochemical. The following applies: for Aβ aggregation inhibition, result in words: Aβ40, ThT assay; for inhibition at 100 µM: Aβ40, compound 100 µM, ThT fluorescence, read-out: % Inhibition @ 100 µM, Aβ antiaggregating activity; for fold less potent than compound 1 (Aβ40 aggregation): ratio of IC50s vs compound 1. As for the experimental part: In vitro inhibition of Aβ aggregation was assessed through a ThT fluorescence-based method, with the use of 2% 1,1,1,3,3,3-hexafluoroisopropanol (HFIP) as aggregation enhancer. In this medium-throughput assay, we preferred using Aβ40 peptide, being more manageable than Aβ42 and less prone to the formation of preaggregates. Samples of Aβ were co-incubated with test molecules in PBS at 100 µM concentration and the antiaggregating activities were measured after 2 h of incubation at 25 °C. For compounds showing >80% Aβ40 aggregation inhibition, IC50s were determined.
The spectrofluorimetric assays, measuring ThT fluorescence in the presence of Aβ, were done as previously described. Briefly, coincubation samples were prepared as described above (Section 2.2 and Section 2.3) in 96-well black, non-binding microplates (Greiner Bio-One GmbH, Frickenhausen, Germany). Fluorimetric reads were performed in a multiplate reader Infinite M1000 Pro (Tecan, Cernusco sul Naviglio, Italy). Each concentration point was run in triplicate. CD ellipticity measures were performed as detailed in ref. [20], following the increase of the negative band at 215 nm as indicative of β-sheet arrangement.

A short description of data set [1]: Lipophilicity by RP-HPLC (log k'w). The class given is physicochemical. The note with it: RP-HPLC C18, MeOH/10 mM ammonium formate buffer pH 4.5, extrapolated to 100% aqueous mobile phase, 25 °C. As for the experimental part: To place on a more quantitative basis the above SAR trends, the lipophilicity of a number of isatin arylhydrazone derivatives was measured by an RP-HPLC method. The polycratic capacity factors (log k’w) were determined (details in the Experimental Section). Lipophilicity descriptors (i.e., 1-octanol–water partition coefficients) were also calculated (CLOGPs) using two computational tools (Bio-Loom software, v. 1.7 and ACDLabs software, release 10.0). The ACDLabs software was used also for calculating descriptors of polarizability and size, namely molar refractivity (CMR) and molar volume (MV). The experimental lipophilicity parameters (log k’w), along with CMR and MV, are reported in Table 6 for 18 compounds achieving finite IC50s (<100 µM) in the Aβ aggregation assay.
The lipophilicity parameters were determined by an RP-HPLC technique. Methanol solutions of the investigated hydrazone compounds (0.5 mg/mL) were injected into an Agilent 1260 infinity HPLC system (Agilent Technologies Italia, Milan), equipped with a diode array detector (DAD), and a Phenomenex Kinetex C18 column (150 × 4.6 mm, 5 μ, Phenomenex Italy s.r.l., Castel Maggiore, BO, Italy), and eluted at different mobile phase compositions (0.05 increments of MeOH volume fraction in 10 mM ammonium formate buffer at pH 4.5, ranging ϕ between 0.85 and 0.30). All RP-HPLC measurements were carried out at 25 ± 1 °C, at a flow rate of 1.0 mL/min, and at 254 nm wavelength.
The logarithm of capacity factors (log k′ = log (tR − t0)/t0) of each compound at different mobile phase compositions have been calculated; tR represents the retention time of the solute and t0 is the column dead time, measured as the elution time of a KNO3 solution in MeOH. For each compound, the log k′ values increased linearly with decreasing MeOH volume fraction. Logarithms of capacity factors extrapolated to the 100% aqueous mobile phase (log k′w) were calculated from the linear regressions on at least five data points (r^2 > 0.975).

[2] abbreviates: 2% HFIP, PBS, 2 h at 25 °C, mean ± SEM of three independent experiments.
The mark [3] stands for this setting: Aβ40 aggregation inhibition, read-out: pIC50, Aβ antiaggregating potency (converted).

T1 sequence (P05067 672-711 limits assumed): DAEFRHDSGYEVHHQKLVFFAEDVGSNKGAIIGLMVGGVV

With `CC(C)c1ccc(NN=C2C(=O)Nc3c(Br)cccc32)cc1` [Compound 37, 7-Bromo-3-(2-(4-isopropylphenyl)hydrazono)indolin-2-one], at Aβ40 peptide, the “Aβ aggregation inhibition, result in words” value (shortened to “Aβ aggregation inhibition”) is recorded as “complete loss of activity”. At Aβ40 peptide (setting [2]), the inhibition – broadly, the share of the control response that was lost under treatment – at 100 µM is less than 5%.
For the compound `COc1ccc2c(c1)/C(=N/Nc1ccccn1)C(=O)N2` [Compound 7, (Z)-5-Methoxy-3-(2-(pyridin-2-yl)hydrazono)indolin-2-one], in data set [1], the “log k'w” value was 2.34. The compound also registered an IC50 on Aβ40 peptide of 90 ± 5 µM.
On to `COc1ccc2[nH]cc(/C=N/Nc3ccc(C(C)C)cc3)c2c1` [Compound 19], for which the “log k'w” value in data set [1] was 6.42. In addition, on Aβ40 peptide, the IC50 is 41 ± 3 µM and the “fold less potent than compound 1 (Aβ40 aggregation)” value came to 100 fold.
In the case of `CC(C)c1ccc(N/N=C2\C(=O)Nc3cc4c(cc32)OCO4)cc1` [Compound 39, (Z)-7-(2-(4-isopropylphenyl)hydrazono)-5H-[1,3]dioxolo[4,5-f]indol-6(7H)-one], at Aβ40 peptide (setting [2]), the inhibition at 100 µM is 70 ± 4%.
For `COc1ccc2c(c1)/C(=N/Nc1ccc3ccccc3n1)C(=O)N2` [Compound 9, (Z)-5-Methoxy-3-(2-(quinolin-2-yl)hydrazono)indolin-2-one], the inhibition at 100 µM at Aβ40 peptide (setting [2]) was 67%.
Same read-out and setting: the figure for `COc1ccc2c(c1)/C(=N/Nc1cccc3cccnc13)C(=O)N2` [Compound 10, (Z)-5-Methoxy-3-(2-(quinolin-8-yl)hydrazono)indolin-2-one] is 58%.
On to `COc1ccc2c(c1)/C(=N/Nc1ccc(C(C)C)cc1)C(=O)N2CCCc1ccccc1` [Compound 34, (Z)-3-(2-(4-Isopropylphenyl)hydrazono)-5-methoxy-1-(3-phenylpropyl)indolin-2-one], for which the “log k'w” value in data set [1] is reported as 7.87. The compound further displayed an IC50 on Aβ40 peptide of 0.83 ± 0.2 µM.
As for `COc1ccc2c(c1)/C(=N/Nc1cc(C(F)(F)F)cc(C(F)(F)F)c1)C(=O)N2` [Compound 6, (Z)-3-(2-(3,5-bis(trifluoromethyl)phenyl)hydrazono)-5-methoxyindolin-2-one], the “log k'w” value in data set [1] was 6.29. Also, on Aβ40 peptide, the IC50 stood at 9.9 ± 0.8 µM and the “fold less potent than compound 1 (Aβ40 aggregation)” value came out at 25 fold.
Take `COc1ccc2c(c1)/C(=N/Nc1ccnc3cc(Cl)ccc13)C(=O)N2` [Compound 11, (Z)-3-(2-(7-Chloroquinolin-4-yl)hydrazono)-5-methoxy-indolin-2-one]: at Aβ40 peptide, the “Aβ aggregation inhibition” value is recorded as “very weak inhibitor”. In addition, the inhibition at 100 µM on Aβ40 peptide (setting [2]) was determined as 14%.
For `COc1ccc2c(c1)C(=NNC(=O)c1cccc(Cl)c1)C(=O)N2` [Compound 23, 3-Chloro-N’-(5-methoxy-2-oxoindolin-3-ylidene)benzohydrazide], the “Aβ aggregation inhibition” value at Aβ40 peptide is “sharp drop of activity”. The inhibition at 100 µM on Aβ40 peptide (setting [2]) came out at 31%.
With `COc1cccc(-c2csc(N/N=C3\C(=O)Nc4ccc(OC)cc43)n2)c1` [Compound 17, (Z)-5-Methoxy-3-(2-(4-(3-methoxyphenyl)thiazol-2-yl)hydrazono)indolin-2-one], the “log k'w” value in data set [1] was 5.29. For the same compound, the IC50 on Aβ40 peptide (setting [3]) is 33.9 µM.
As for `COc1ccc2c(c1)/C(=N/N(C)c1ccc(C(C)C)cc1)C(=O)N2C` [Compound 24, (Z)-3-(2-(4-Isopropylphenyl)-2-methylhydrazono)-5-methoxy-1-methylindolin-2-one], in data set [1], the “log k'w” value was 4.23. In addition, the IC50 at Aβ40 peptide (setting [3]) was 11 µM. Further, the “fold decrease in inhibition potency compared with 26” value at Aβ40 peptide (vs non-methylated compound 26) was “more than 10 fold”.
On to `COc1ccc2c(c1)/C(=N/Nc1ccc(C(C)C)cc1)C(=O)N2C` [Compound 26, (Z)-3-(2-(4-Isopropylphenyl)hydrazono)-5-methoxy-1-methylindolin-2-one], for which the “log k'w” value in data set [1] was 5.96. The compound further displayed an IC50 against Aβ40 peptide of 0.81 ± 0.11 µM.
For the compound `COc1ccc2c(c1)/C(=N/Nc1nc(CCl)cs1)C(=O)N2` [Compound 13, (Z)-3-(2-(4-(Chloromethyl)thiazol-2-yl)hydrazono)-5-methoxyindolin-2-one], in data set [1], the “log k'w” value is on record as 3.95. The IC50 at Aβ40 peptide (setting [3]) was 12.9 µM.
With `COc1ccc2c(c1)/C(=N\N=C/c1ccc(C(C)C)cc1)C(=O)N2` [Compound 21, (Z)-3-((E)-(4-Isopropylbenzylidene)hydrazono)-5-methoxyindolin-2-one], the “log k'w” value in data set [1] was 4.82. Besides, the IC50 on Aβ40 peptide (Aβ40, ThT fluorescence, 2% HFIP, PBS, 2 h at 25 °C, mean ± SEM of three independent experiments, read-out: IC50 (µM), Aβ antiaggregating activity) turned out to be 6.7 ± 0.2 µM.
Turning to `CC(C)c1ccc(NN=C2C(=O)Nc3ccc(S(=O)(=O)O)cc32)cc1` [Compound 38, Sodium 3-(2-(4-isopropylphenyl)hydrazono)-2-oxoindolin-5-sulfonate], the inhibition at 100 µM at Aβ40 peptide (setting [2]) was 35 ± 4%.
For `COc1ccc2c(c1)/C(=N/Nc1nc(-c3ccccc3)cs1)C(=O)N2` [Compound 15], in data set [1], the “log k'w” value was 5.10. Besides, at Aβ40 peptide (setting [3]), the IC50 was 1.2 µM.
For the compound `COc1ccc2c(c1)/C(=N/Nc1cccc3ccccc13)C(=O)N2` [Compound 8, (Z)-5-Methoxy-3-(2-(naphthalen-1-yl)hydrazono)indolin-2-one], in data set [1], the “log k'w” value is 5.15. Besides, the IC50 at Aβ40 peptide (setting [3]) is 28.2 µM.
In the case of `COc1ccc2c(c1)/C(=N/Nc1ccc(C(F)(F)F)cc1)C(=O)N2` [Compound 5, (Z)-5-Methoxy-3-(2-(4-(trifluoromethyl)phenyl)hydrazono)indolin-2-one], the inhibition at 100 µM on Aβ40 peptide (setting [2]) was determined as 57%.
Turning to `CCCCc1ccc2c(c1)C(=NNc1ccc(C(C)C)cc1)C(=O)N2` [Compound 36, 5-Butyl-3-(2-(4-isopropylphenyl)hydrazono)indolin-2-one], the inhibition at 100 µM on Aβ40 peptide (setting [2]) worked out at 55 ± 1%.
For `COc1ccc2c(c1)/C(=N/Nc1nc(C)c(C)s1)C(=O)N2` [Compound 14, (Z)-3-(2-(4,5-Dimethylthiazol-2-yl)hydrazono)-5-methoxyindolin-2-one], on Aβ40 peptide, the “Aβ aggregation inhibition” value is “very weak inhibitor”. The inhibition at 100 µM on Aβ40 peptide (setting [2]) turned out to be 43%.
Consider `COc1ccc2c(c1)/C(=N\N=C/c1cccc(Cl)c1)C(=O)N2` [Compound 22, (Z)-3-((E)-(3-chlorobenzylidene)hydrazono)-5-methoxyindolin-2-one], for which the “log k'w” value in data set [1] is 4.21. Moreover, on Aβ40 peptide (setting [3]), the IC50 is 11 µM.
For the compound `COc1ccc2c(c1)/C(=N/Nc1ccc(C#N)cc1)C(=O)N2` [Compound 4, (Z)-4-(2-(5-Methoxy-2-oxoindolin-3-ylidene)hydrazinyl)benzonitrile], the inhibition at 100 µM at Aβ40 peptide (setting [2]) stood at 16%.
For `COc1ccc2c(c1)/C(=N/Nc1ccc(C(C)C)cc1)C(=O)N2Cc1ccccc1` [Compound 32, (Z)-1-Benzyl-3-(2-(4-isopropylphenyl)hydrazono)-5-methoxyindolin-2-one], in data set [1], the “log k'w” value is given as 7.44. Also, on Aβ40 peptide, the IC50 stood at 0.53 ± 0.1 µM.
For the compound `COc1ccc2c(c1)/C(=N/Nc1ccc(C(C)C)cc1)C(=O)N2CCc1ccccc1` [Compound 33, (Z)-3-(2-(4-Isopropylphenyl)hydrazono)-5-methoxy-1-phenethylindolin-2-one], the “log k'w” value in data set [1] was 7.24. In addition, the IC50 against Aβ40 peptide is 0.61 ± 0.03 µM.
For `COc1ccc2c(c1)/C(=N/Nc1nc(-c3cccc(Br)c3)cs1)C(=O)N2` [Compound 18, (Z)-3-(2-(4-(3-Bromophenyl)thiazol-2-yl)hydrazono)-5-methoxyindolin-2-one], the “log k'w” value in data set [1] is 5.67. On Aβ40 peptide (setting [3]), the IC50 is 39.8 µM.
As for `COc1ccc2c(c1)/C(=N/Nc1nc(-c3cccc(O)c3)cs1)C(=O)N2` [Compound 16, (Z)-3-(2-(4-(3-Hydroxyphenyl)thiazol-2-yl)hydrazono)-5-methoxyindolin-2-one], the “log k'w” value in data set [1] is 4.58. Further, the IC50 at Aβ40 peptide (setting [3]) was 15.8 µM.
